Experimental data: patent publication US11873298B2, “Compounds and uses thereof” (JANSSEN PHARMACEUTICA NV, priority 2017, dated 2024)
Several values for one entry are separate records, joined by “and”; a condition that tells them apart may be missing. Identical values can stand only once.

What was measured:
Type in all cases: cell-based
[1] = biological target: T1, Ole1 (Saccharomyces cerevisiae, UniProt P21147); assay: Growth inhibition of yeast strain expressing Ole1 as sole desaturase; settings: yeast strain expressing Ole1 as sole desaturase
T1 construct: expressed in transfected cells; host or cells: S. cerevisiae ole1Δ strain (W303 pdr1Δ pdr3Δ background), plasmid pRS316 with TDH3 promoter and CYC1 terminator
T1 sequence (P21147 1-510): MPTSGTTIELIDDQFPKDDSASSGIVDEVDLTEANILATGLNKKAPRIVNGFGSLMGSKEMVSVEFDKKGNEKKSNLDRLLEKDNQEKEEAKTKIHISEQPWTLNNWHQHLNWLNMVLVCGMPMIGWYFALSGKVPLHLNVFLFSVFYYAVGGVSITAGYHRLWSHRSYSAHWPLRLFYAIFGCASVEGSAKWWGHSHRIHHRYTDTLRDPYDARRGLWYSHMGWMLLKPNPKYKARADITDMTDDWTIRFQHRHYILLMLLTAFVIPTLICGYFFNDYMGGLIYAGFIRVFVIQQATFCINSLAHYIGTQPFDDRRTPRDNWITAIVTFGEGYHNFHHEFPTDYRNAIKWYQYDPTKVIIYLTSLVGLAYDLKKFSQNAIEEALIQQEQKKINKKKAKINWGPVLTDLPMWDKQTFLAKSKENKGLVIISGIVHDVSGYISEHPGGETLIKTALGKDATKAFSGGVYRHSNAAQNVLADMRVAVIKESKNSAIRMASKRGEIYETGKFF
Summary of the method: (§1)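 Measured by optical density at 600 nm, growth of desaturase-dependent yeast (OLE1 deleted; human SCD1, human SCD5 or yeast Ole1 supplied from plasmid) was scored after 24 h (Ole1) or 40 h (SCD1, SCD5) at 30° C. in galactose media lacking uracil with DMSO-delivered compound.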

[2] = biological target: T2, SCD1 (Homo sapiens, UniProt O00767); assay: Growth inhibition of humanized yeast strain expressing SCD1 as sole desaturase; settings: humanized yeast strain expressing SCD1
T2 construct: host or cells: S. cerevisiae ole1Δ strain (W303 pdr1Δ pdr3Δ background), plasmid pRS316 with TDH3 promoter and CYC1 terminator
T2 sequence (O00767 1-359): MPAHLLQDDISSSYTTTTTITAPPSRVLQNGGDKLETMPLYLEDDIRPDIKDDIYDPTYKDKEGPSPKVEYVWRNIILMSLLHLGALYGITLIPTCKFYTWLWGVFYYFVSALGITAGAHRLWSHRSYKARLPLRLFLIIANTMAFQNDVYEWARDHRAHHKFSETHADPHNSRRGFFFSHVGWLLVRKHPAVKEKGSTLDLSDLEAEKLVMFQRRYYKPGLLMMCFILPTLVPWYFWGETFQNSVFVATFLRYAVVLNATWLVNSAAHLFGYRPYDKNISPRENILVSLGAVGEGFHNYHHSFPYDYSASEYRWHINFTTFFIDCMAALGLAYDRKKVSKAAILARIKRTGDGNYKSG
Summary of the method: as §1

[3] = biological target: T3, SCD5 (Homo sapiens, UniProt Q86SK9); assay: Growth inhibition of humanized yeast strain expressing SCD5 as sole desaturase; settings: humanized yeast strain expressing SCD5
T3 construct: host or cells: S. cerevisiae ole1Δ strain (W303 pdr1Δ pdr3Δ background), plasmid pRS316 with TDH3 promoter and CYC1 terminator
T3 sequence (Q86SK9 1-330): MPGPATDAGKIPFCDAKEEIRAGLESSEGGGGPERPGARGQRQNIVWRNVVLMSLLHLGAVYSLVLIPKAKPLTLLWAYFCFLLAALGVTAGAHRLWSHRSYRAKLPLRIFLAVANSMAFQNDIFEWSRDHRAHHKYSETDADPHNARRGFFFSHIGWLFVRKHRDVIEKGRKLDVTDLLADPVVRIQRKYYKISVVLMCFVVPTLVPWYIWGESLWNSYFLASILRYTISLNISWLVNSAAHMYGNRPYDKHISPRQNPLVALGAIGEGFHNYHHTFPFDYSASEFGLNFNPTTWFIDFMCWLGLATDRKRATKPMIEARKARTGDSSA
Summary of the method: as §1

Row | SMILES | IC50 [1] | OLE1 % Max Inhibition [1] | SCD1 % Max Inhibition [2] | IC50 [3] [µM] | SCD5 % Max Inhibition [3] | IC50 [2] [µM]
1 | COC(=O)N1CCC(c2nc(-c3ccc4c(C)nn(C)c4c3)no2)CC1 [Compound 273] | > 45 µM | 78.7% | 67.9% | > 45 | 55.0% | 
2 | COc1ccc(-c2noc(C3CCN(C(=O)CNC(=O)c4ccccc4)CC3)n2)cc1OC(C)C [Compound 274] | > 45 µM | 75.9% | 75.3% | > 45 | 67.0% | 
3 | Cc1nn(C)c2cc(-c3noc(C4CCN(C(=O)C5CC(=O)N(c6ccc(F)cn6)C5)CC4)n3)ccc12 (stereo not drawn) [Compound 275] | > 45 µM | 11.24% | 76.51% | > 45 | 78.05% | > 45
4 | CC(C)n1cc2ccc(-c3noc(C4CCN(C(=O)OC(C)(C)C)CC4)n3)cc2n1 [Compound 277] | > 45 µM | 94.36% | 76.49% | > 45 | 74.99% | 
5 | Cc1nn(C)c2cc(-c3noc(N4CCN(C(=O)c5cc(F)ccc5Cl)CC4)n3)ccc12 [Compound 278] | > 45 µM | 21.08% | 32.22% | > 45 | 10.55% | 
6 | Cc1nn(C)c2cc(-c3noc(C4CCN(S(=O)(=O)C(C)C)CC4)n3)ccc12 [Compound 279] | > 45 µM | 83.07% | 43.86% | > 45 | 21.97% | 
7 | Cc1nn(C)c2cc(-c3noc(C4CCN(C(=O)c5ccccc5)CC4)n3)ccc12 [Compound 280] | > 45 µM | 17.18% | 11.48% | > 45 | 8.86% | 
8 | Cc1nn(C(C)C)c2cc(-c3noc(C4CCN(C(=O)CNC(=O)c5ccccc5)CC4)n3)ccc12 [Compound 281] | 33.8 µM and > 45 µM | 60.23% and 32.09% | 84.97% and 68.90% | > 45 | 18.03% and 12.39% | ≥ 45
9 | Cc1nn(C)c2cc(-c3noc(C4CCN(C(=O)NC(C)(C)C)CC4)n3)ccc12 [Compound 282] | > 45 µM | 110.18% | 90.54% | 28.9 | 56.23% | 
10 | Cc1nn(C)c2cc(-c3noc(C4CCN(C(=O)c5ccccc5C(F)(F)F)CC4)n3)ccc12 [Compound 283] | > 45 µM | 24.43% | 34.91% | > 45 | 9.83% | 34.6
11 | Cc1nn(C)c2cc(-c3noc(C4CCN(C(=O)c5cccc(F)c5)CC4)n3)ccc12 [Compound 284] | > 45 µM | 12.40% | 4.81% | > 45 | 6.80% | 
12 | CC(C)c1ccc(C(=O)N2CCC(c3nc(C(=O)Nc4cnn(C)c4)no3)CC2)cc1 [Compound 285] | > 45 µM | 105.26% | 45.62% | > 45 | 30.09% | 
13 | Cc1nn(C2CC2)c2cc(-c3noc(C4CCN(C(=O)CNC(=O)c5ccccc5)CC4)n3)ccc12 [Compound 286] | > 45 µM | 5.18% and 4.35% | 13.04% and 14.44% | > 45 | 8.76% and 9.55% | 
14 | CC(C)c1ccc(C(=O)N2CCC(c3nc(C(=O)Nc4ccnn4C)no3)CC2)cc1 [Compound 287] | > 45 µM | 93.89% | 72.51% | > 45 | 66.81% | 
15 | Cc1nn(C)c2cc(-c3noc(C4CCN(C(=O)c5ccccc5Cl)CC4)n3)ccc12 [Compound 288] | > 45 µM | 7.14% | 8.71% | > 45 | 7.52% | 
